Assays:
GFRα3/RET = target: T1, GFRα3/RET (UniProt O60609+P35546); assay: RET phosphorylation in N2A cells transfected with GFRα3; format: cell-based, human GFRα3 in murine N2A cells
T1 construct: N2A cells (which express RET) transfected with GFRα1 or GFRα3 expression constructs; expressed in transfected cells; host or cells: Neuro2A (N2A) cells; GFRα3 plasmid was a gift from Dr. Milbrandt; RET is endogenous
Procedure: Since the original report argued that XIB4035 displaces GDNF binding to GFRα1 expressing cells (FIG. 2 in Tokugawa et al., Neurochem Int 42, 81-86 (2003).), potentially ARTN, on TH-luciferase activity and Ret phosphorylation. […] In this experiment, cells were treated with GDNF or ARTN with or without XIB4035 for 10 minutes and cell lysates were either collected immediately or treatment was washed out and replaced with growth media for 30, 60, or 120 minutes. […] Therefore, we tested cells expressing only one GFRα using either N2A cells (which express RET) transfected with GFRα1 or GFRα3 expression constructs, or B(E)2-C cells, which express only GFRα2 together with RET. […] The GFRα1 or GFRα3 transfected N2A cells were then treated with XIB4035 alone, the appropriate ligand for the expressed receptor alone, or XIB4035 and ligand in combination for 10 minutes, and collected lysates immediately after treatment or 60 minutes after washout. […] Similar results were obtained with GFRα2 and NRTN using B(E)2-C cells (FIG. 8). Thus, XIB4035 is a positive modulator of signaling by GDNF family ligands and their receptors, not an agonist for GFRα1 as previously reported.
For phosphorylated Ret immunoblot experiments, cells were treated with various combinations of molecules for 10 minutes and either collected immediately or had treatment washed out and returned to control treatment media for the times indicated prior to cell collection. Lysates were collected in buffer containing: 50 mM Tris-HCL, 1% TX-100, 0.25% Deoxycholic acid, 150 mM sodium chloride, 1 mM EDTA, 0.1 mM sodium fluoride, 0.1 mM sodium pyrophosphate, 0.02 mM sodium orthovanadate, and protease inhibitors Immunoblots were blocked in 5% bovine serum albumin in tris-buffered saline+0.2% Tween 20+0.1 mM sodium fluoride, 0.1 mM sodium pyrophosphate, and 0.02 mM sodium orthovanadate and probed in blocking solution using anti-phospotyrosine (4G10) mouse monoclonal antibody (1:2000; EMD Milipore Corp., Billerica, Mass.). […]

[1] = test system: GFRα/RET receptor signaling; assay: Tyrosine hydroxylase promoter luciferase reporter assay in SH-SY5Y-THpGL3 cells; format: cell-based, human; settings: for effect in the TH-luciferase assay: XIB4035 alone
Description: One goal of these studies was to determine if XIB4035 could be used for treating SFN in humans. Using the Neuro2A (N2A) murine neuroblastoma cell line, Tokugawa et al. (supra) reported XIB4035 as a competitive agonist for the GDNF receptor GFRα1 that activates the RET receptor. Since populations of DRG sensory neurons express different GFRα receptors, thus making them preferentially responsive to the particular ligands, it was important to determine if XIB4035 was specific to GFRα1 or could act on other family members. Since PSPN has no effect on peripheral sensory neurons, the GFRα1, GFRα2, and GFRα3 receptors were the focus of these studies. The SH-SY5Y, a human neuroblastoma cell line expressing mRNA for GFRα1, GFRα2, and GFRα3, was used to perform two cell-based assays; immunoblots measuring RET phosphorylation and a luciferase reporter assay using the tyrosine hydroxylase (TH) promoter. For the latter two paradigms were used, either overnight treatment immediately followed by luciferase activity measurements or 10 minute treatments followed by washout and overnight incubation prior to measurements. GDNF and ARTN induced robust TH-luciferase activity in a dose dependent manner (FIG. 3E). Because the responses to GDNF and ARTN were more robust, these two factors were chosen for further analysis.
The tyrosine hydroxylase promoter was cloned into the pGL3 basic vector (Promega, Madison, Wis., USA) at the Mlu I and Hind III sites, as previously described (Zwick, supra) (TH-pGL3). Briefly, a 2 Kb promoter region upstream from the transcription initiation site of the rat TH gene was cloned from genomic DNA using the primer sequences, […] and […]. SH-SY5Y cells were co-transfected with the TH-pGL3 and the pBabe-puromycin expression vectors at a molar ratio of 10:1. Cells were selected for stable puromycin resistance at a final concentration of 0.5 μg/ml of puromycin-dihydrochloride. Stable colonies were selected and tested for TH-directed luciferase response to GDNF family ligand stimulation. One stable clone, SH-SY5Y-THpGL3, with good signal-to-noise ratio was selected for use in the experiments.
SH-SY5Y-THpGL3 cells were maintained in DMEM/F12, 5% FBS, and 1% penicillin/streptomycin and plated on collagen coated plates (4 μg/ml). Neuro-2A cells were grown in MEM, 5% FBS, and 1% penicillin/streptomycin. BE(2)-C cells were grown in DMEM/F12 media containing 5% FBS and 1% penicillin/streptomycin. PC-12 cells were maintained in media containing RPMI-1640, 10% horse serum, 5% FBS, and 1% penicillin/streptomycin on collagen coated plates. For luciferase assays, cells were treated for either 10 minutes with washout or overnight with various molecules and assayed for firefly luciferase 16-24 hours post-treatment using the luciferase assay system (Promega, Madison, Wis., USA).

T1 sequence (O60609 32-374 limits assumed): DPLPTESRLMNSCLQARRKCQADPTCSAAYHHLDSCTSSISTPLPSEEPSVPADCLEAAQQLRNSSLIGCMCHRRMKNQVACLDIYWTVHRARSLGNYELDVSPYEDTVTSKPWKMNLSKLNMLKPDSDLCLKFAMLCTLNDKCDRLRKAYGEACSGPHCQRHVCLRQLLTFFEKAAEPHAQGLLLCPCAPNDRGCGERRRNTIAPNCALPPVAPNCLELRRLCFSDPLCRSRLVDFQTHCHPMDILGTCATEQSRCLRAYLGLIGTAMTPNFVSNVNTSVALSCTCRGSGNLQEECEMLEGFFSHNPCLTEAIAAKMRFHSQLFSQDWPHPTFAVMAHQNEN
T1 sequence (P35546 29-1115): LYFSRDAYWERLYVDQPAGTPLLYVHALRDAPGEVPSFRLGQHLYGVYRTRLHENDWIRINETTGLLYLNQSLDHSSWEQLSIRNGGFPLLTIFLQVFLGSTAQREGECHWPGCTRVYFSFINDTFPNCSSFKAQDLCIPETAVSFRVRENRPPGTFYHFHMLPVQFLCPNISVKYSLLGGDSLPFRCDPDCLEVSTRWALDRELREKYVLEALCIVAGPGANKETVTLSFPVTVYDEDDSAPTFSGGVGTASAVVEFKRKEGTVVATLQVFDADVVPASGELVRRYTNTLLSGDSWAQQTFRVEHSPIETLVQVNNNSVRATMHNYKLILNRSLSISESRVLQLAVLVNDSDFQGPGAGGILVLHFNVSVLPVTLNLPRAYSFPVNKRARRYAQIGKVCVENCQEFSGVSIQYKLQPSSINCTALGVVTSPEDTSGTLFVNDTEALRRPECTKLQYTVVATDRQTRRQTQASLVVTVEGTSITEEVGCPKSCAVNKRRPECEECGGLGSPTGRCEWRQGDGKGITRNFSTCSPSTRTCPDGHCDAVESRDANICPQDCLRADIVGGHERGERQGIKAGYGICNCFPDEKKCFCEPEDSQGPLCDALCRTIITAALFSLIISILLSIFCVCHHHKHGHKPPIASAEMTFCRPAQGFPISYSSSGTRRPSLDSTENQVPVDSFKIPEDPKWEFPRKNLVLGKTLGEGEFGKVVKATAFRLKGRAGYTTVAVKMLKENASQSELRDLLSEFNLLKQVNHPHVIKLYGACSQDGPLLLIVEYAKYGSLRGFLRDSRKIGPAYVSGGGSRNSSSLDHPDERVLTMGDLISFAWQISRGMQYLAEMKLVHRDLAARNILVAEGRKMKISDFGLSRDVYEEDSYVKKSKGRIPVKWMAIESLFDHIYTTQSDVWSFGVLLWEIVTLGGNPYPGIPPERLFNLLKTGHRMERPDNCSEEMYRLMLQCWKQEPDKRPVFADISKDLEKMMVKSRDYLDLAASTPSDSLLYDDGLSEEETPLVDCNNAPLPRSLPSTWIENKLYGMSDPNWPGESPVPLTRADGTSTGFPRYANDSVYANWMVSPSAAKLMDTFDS

## CCN(CC)CCCC(C)Nc1cc(/C=C/c2ccccc2Cl)nc2cc(Cl)ccc12 (stereo not drawn) [XIB4035, N4-{7-chloro-2-[(E)-2-(2-chloro-phenyl)-vinyl]-quinolin-4-yl}-N1,N1-diethyl-pentane-1,4-diamine]
GFRα3/RET; XIB4035 alone, 10 minutes
  induction of RET phosphorylation: did not induce RET phosphorylation
GFRα3/RET; XIB4035 and ligand co-treatment, 60 minutes after washout
  RET phosphorylation at the 60 min time-point compared to ligand alone: clearly prolonged
[1]; 18 nM ARTN + 20 μM XIB4035
  maximal effect, luciferase activity: 3.61±0.47 fold over control
[1]; 18 nM GDNF + 20 μM XIB4035
  maximal effect, luciferase activity: 3.41±0.41 fold over control
[1]; ARTN + 20 μM XIB4035, 10 minutes, washout, overnight
  minimal ARTN dose necessary to induce luciferase activity above control: 2.7 pM
[1]; GDNF + 20 μM XIB4035, 10 minutes, washout, overnight
  minimal GDNF dose necessary to induce luciferase activity above control: 2.7 pM
[1]; 10 minute treatment, 1-15 μM, washout, overnight incubation
  effect in the TH-luciferase assay: no effect
[1]; overnight treatment, 6.25-500 nM
  effect in the TH-luciferase assay: no effect
[1]; co-treatment with either GDNF or ARTN over a range of doses
  effect on ligand-induced TH-luciferase activity: significantly potentiates

From patent US20160045487A1, “COMPOSITIONS AND METHODS FOR TREATING NEUROPATHY” (CHILDEREN'S MEDICAL CENTER CORPORATION, priority 2013, published 2016)
